According to US9045461B2, “Phenyl-heteroaryl derivatives and methods of use thereof” (TransTech Pharma, LLC, priority 2010, dated 2015):
Where a name gives a salt, the structure may show the parent alone.

Tests used:
[1] = molecular target: T1, sRAGE binding to β-amyloid (Homo sapiens, UniProt Q15109); test: RAGE binding assay (ELISA), β-amyloid as the RAGE ligand; details: compounds tested in hydrochloride salt form, concentration at which 50% signal has been inhibited
T1 construct: extracellular domain can be isolated by proteolysis of RAGE to generate soluble RAGE (sRAGE) comprised of the V and C domains
How it was run: (§1)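 Ligand (500 ng/well) coated in carbonate buffer pH 9.8 overnight at 4° C and blocked with 1% BSA; test compound (10-100 μM in water, 4% DMSO co-solvent) incubated with sRAGE (6 nM FAC) 1 h at 37° C. Bound sRAGE detected by anti-sRAGE/biotin-anti-mouse/AP-streptavidin with pNPP, A405. IC50 = 50% signal inhibition.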

[2] = molecular target: T2, sRAGE binding to S100b (Homo sapiens, UniProt Q15109); test: RAGE binding assay (ELISA), S100b as the RAGE ligand; details: compounds tested in hydrochloride salt form, concentration at which 50% signal has been inhibited
T2 construct: extracellular domain can be isolated by proteolysis of RAGE to generate soluble RAGE (sRAGE) comprised of the V and C domains
How it was run: as §1

T1 sequence (Q15109 23-342 limits assumed): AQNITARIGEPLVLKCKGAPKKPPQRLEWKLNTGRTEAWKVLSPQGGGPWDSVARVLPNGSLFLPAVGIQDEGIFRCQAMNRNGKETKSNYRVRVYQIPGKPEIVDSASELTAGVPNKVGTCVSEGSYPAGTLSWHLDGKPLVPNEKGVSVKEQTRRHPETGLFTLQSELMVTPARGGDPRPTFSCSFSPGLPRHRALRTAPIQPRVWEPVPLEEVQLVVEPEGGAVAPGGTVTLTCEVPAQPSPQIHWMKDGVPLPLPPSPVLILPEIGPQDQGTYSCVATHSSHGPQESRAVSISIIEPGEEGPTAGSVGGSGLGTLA
T2 sequence (Q15109 23-342 limits assumed): as above

CCCCc1nnc(OC2CCN(C)CC2)cc1-c1ccc(OC2CCCCC2)c(N2CCCS2(=O)=O)c1 [Example 75, 3-Butyl-4-[4-cyclohexyloxy-3-(1,1-dioxo-1lambda*6*-isothiazolidin-2-yl)-phenyl]-6-(1-methyl-piperidin-4-yloxy)-pyridazine dihydrochloride] showed an IC50 [1] of 2850 nM and an IC50 [2] of 2190 nM.
In the case of CCCCc1nnc(OC2CCN(C)CC2)cc1-c1ccc(OC2CCCCC2)c(C2=NC(C)(C)CO2)c1 [Example 76, 3-Butyl-4-[4-cyclohexyloxy-3-(4,4-dimethyl-4,5-dihydro-oxazol-2-yl)-phenyl]-6-(1-methyl-piperidin-4-yloxy)-pyridazine], the IC50 [1] is reported as 6780 nM and the IC50 [2] is reported as 2070 nM.
CCCCc1nnc(OC2CCN(C)CC2)cc1-c1ccc(OC2CCCCC2)c(NC(=O)NC(C)(C)C)c1 [Example 77, 1-tert-Butyl-3-{5-[3-butyl-6-(1-methyl-piperidin-4-yloxy)-pyridazin-4-yl]-2-cyclohexyloxy-phenyl}-urea dihydrochloride] gave an IC50 [1] of 660 nM and an IC50 [2] of 680 nM.
With CCCCc1nnc(OC2CCN(C)CC2)cc1-c1ccc(OC2CCCCC2)c(-c2cnn(CCOC)c2)c1 [Example 78, 3-Butyl-4-{4-cyclohexyloxy-3-[1-(2-methoxy-ethyl)-1H-pyrazol-4-yl]-phenyl}-6-(1-methyl-piperidin-4-yloxy)-pyridazine dihydrochloride] the IC50 [1] was 1160 nM and the IC50 [2] was 500 nM.
CCCCc1nnc(OC2CCN(C)CC2)cc1-c1ccc(OC2CCCCC2)c(-c2nnn(C)n2)c1 [Example 79, 3-Butyl-4-[4-cyclohexyloxy-3-(2-methyl-2H-tetrazol-5-yl)-phenyl]-6-(1-methyl-piperidin-4-yloxy)-pyridazine dihydrochloride] gave an IC50 [1] of 1490 nM and an IC50 [2] of 1470 nM.
CCCCc1nnc(C(=O)NC2CCN(C)CC2)cc1-c1ccc(OCc2ccccc2)cc1 [Example 80, 5-(4-Benzyloxy-phenyl)-6-butyl-pyridazine-3-carboxylic acid (1-methyl-piperidin-4-yl)-amide dihydrochloride] was tested, and the IC50 [1] was 1250 nM and the IC50 [2] was 1250 nM.
Work on CCCCc1nnc(C(=O)NCC2CCN(C)CC2)cc1-c1ccc(OCc2ccccc2)cc1 [Example 81, 5-(4-Benzyloxy-phenyl)-6-butyl-pyridazine-3-carboxylic acid (1-methyl-piperidin-4-ylmethyl)-amide dihydrochloride] yielded an IC50 [1] of 1540 nM and an IC50 [2] of 1820 nM.
Work on CCCCc1nnc(C(=O)N[C@@H]2CN3CCC2CC3)cc1-c1ccc(OCc2ccccc2)cc1 [Example 82, 5-(4-Benzyloxy-phenyl)-6-butyl-pyridazine-3-carboxylic acid (S)-(1-aza-bicyclo[2.2.2]oct-3-yl)-amide dihydrochloride] yielded an IC50 [1] of 1290 nM and an IC50 [2] of 1270 nM.
For CCCCc1nnc(C(=O)N[C@H]2CN3CCC2CC3)cc1-c1ccc(OCc2ccccc2)cc1 [Example 83, 5-(4-Benzyloxy-phenyl)-6-butyl-pyridazine-3-carboxylic acid (R)-(1-aza-bicyclo[2.2.2]oct-3-yl)-amide dihydrochloride], the IC50 [1] was 1130 nM and the IC50 [2] was 1180 nM.
CCCCc1nnc(C(=O)NC2CCN(C)CC2)cc1-c1ccc(OC2CCCCC2)cc1 [Example 84, 6-Butyl-5-(4-cyclohexyloxy-phenyl)-pyridazine-3-carboxylic acid (1-methyl-piperidin-4-yl)-amide dihydrochloride] gave an IC50 [1] of 1960 nM and an IC50 [2] of 1560 nM.
Compound CCCCc1nnc(C(=O)N[C@@H]2CN3CCC2CC3)cc1-c1ccc(OC2CCCCC2)cc1 [Example 85, (S)-6-Butyl-5-(4-cyclohexyloxy-phenyl)-pyridazine-3-carboxylic acid (1-aza-bicyclo[2.2.2]oct-3-yl)-amide dihydrochloride] has an IC50 [1] of 1970 nM and an IC50 [2] of 1490 nM.
CCCCc1nnc(C(=O)N[C@H]2CN3CCC2CC3)cc1-c1ccc(OC2CCCCC2)cc1 [Example 86, (R)-6-Butyl-5-(4-cyclohexyloxy-phenyl)-pyridazine-3-carboxylic acid (1-aza-bicyclo[2.2.2]oct-3-yl)-amide dihydrochloride] was tested, and the IC50 [1] was 1020 nM and the IC50 [2] was 1920 nM.
